Residues, ends and D or L forms follow the SMILES beside them.
Target: gp41 six-helix bundle formation between N46 and C34-biotin (Human immunodeficiency virus type 1 group M subtype B, UniProt P04578)
Type: biochemical, HIV-1
Conditions: triple combination of T-20, T-1249 and T-1144
Procedure: 6. Enzyme-linked Immunosorbent Assay (ELISA). […] The plate was then incubated for 30 min and added to horseradish peroxidase (HRP) labeled with streptavidin (SA-HRP) (ZYMED Laboratories). The plate was washed with the washing buffer (PBS containing 0.01% Tween 20) for 6 times to remove any unbound peptide. The substrate TMB was added sequentially. Absorbance at 450 nm (A450) was measured using an ELISA reader.

Chain of gp41 six-helix bundle formation between N46 and C34-biotin (P04578 536-581): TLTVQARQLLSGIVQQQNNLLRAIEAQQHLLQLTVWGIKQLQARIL

## CC[C@H](C)[C@H](NC(=O)[C@H](C)NC(=O)[C@H](CCCNC(=N)N)NC(=O)[C@H](CC(=O)O)NC(=O)[C@H](Cc1c[nH]c2ccccc12)NC(=O)[C@H](C)NC(=O)[C@H](CCC(=O)O)NC(=O)[C@H](Cc1c[nH]c2ccccc12)NC(=O)[C@@H](NC(=O)[C@@H](NC(C)=O)[C@@H](C)O)[C@@H](C)O)C(=O)N[C@@H](C)C(=O)N[C@@H](CCC(=O)O)C(=O)N[C@@H](Cc1ccc(O)cc1)C(=O)N[C@@H](C)C(=O)N[C@@H](C)C(=O)N[C@@H](CCCNC(=N)N)C(=O)N[C@H](C(=O)N[C@@H](CCC(=O)O)C(=O)N[C@@H](C)C(=O)N[C@@H](CC(C)C)C(=O)N[C@@H](CC(C)C)C(=O)N[C@@H](CCCNC(=N)N)C(=O)N[C@@H](C)C(=O)N[C@@H](CC(C)C)C(=O)N[C@@H](CCC(N)=O)C(=O)N[C@@H](CCC(=O)O)C(=O)N[C@@H](CCC(N)=O)C(=O)N[C@@H](CCC(N)=O)C(=O)N[C@@H](CCC(=O)O)C(=O)N[C@@H](CCCCN)C(=O)N[C@@H](CC(N)=O)C(=O)N[C@@H](CCC(=O)O)C(=O)N[C@@H](C)C(=O)N[C@@H](C)C(=O)N[C@@H](CC(C)C)C(=O)N[C@@H](CCCNC(=N)N)C(=O)N[C@@H](CCC(=O)O)C(=O)N[C@@H](CC(C)C)C(N)=O)[C@@H](C)CC [T-1144] (Ac-TTWEAWDRAIAEYAARIEALLRALQEQQEKNEAALREL-NH2; N-terminus and C-terminus assumed)
  Dose reduction, six-helix bundle formation: ~2 fold

— US7919101B2 (priority 2008, dated 2011)
